Series [1] has as its system Ectocervical Cells. Description: Association and invasion (gentimicin-resistance) assays, primary ectocervical (pex) cells. The series is classed as cell-based, human. As for the experimental part: (§1) 8. N. gonorrhoeae Attachment to and Invasion of Primary, Human, Cervical Cells. Primary cervical cell monolayers were infected with wild-type or PLD mutant gonococci as outlined above. Variable concentrations of Streptomyces spp. PLD (SsPLD) (Sigma), PMA, or 4-α phorbol were included in association (adherence and invasion) or invasion assays, as noted. Cervical cells were preincubated (30 minutes, 37° C.) with 200 nM PMA or 4-α phorbol before the addition of gonococci. 10 units ml^−1 SsPLD was added simultaneously with gonococci. Alternatively, where noted, cervical cell monolayers were pre-incubated (30 minutes, 37° C.) with pervanadate, which was made by mixing 100 μM ortho-sodium vanadate in 3 mM hydrogen peroxide. In separate assays, infection supernatants were collected from wild-type or PLD mutant-infected cervical cell monolayers, gonococci were removed by filtration through a 0.22 μm syringe filter (i.e., wild-type or mutant primed supernatants) and were added to association and/or invasion assays, as noted. The ability of gonococci to adhere to and/or invade pex and pen cells was quantitatively determined using standard gentimicin-resistance assays, performed as described previously (Edwards et al., 2000), and in which chemical or protein additives were included or excluded from the invasion assay as described above. The total association (i.e., adherence and invasion) of gonococci with pex and pen cells was quantitated by the omission of gentimicin from the above described invasion assay. Percent invasion of N. gonorrhoeae 1291 or 1291ΔPLDin the presence or absence of experimental additives was determined as a function of the original inoculum and the number of colonies formed with subsequent plating of the cellular lysate. A Kruskal-Wallis non-parametric analysis of variance was used to determine the statistical significance of the association and invasion assays described above.
N. gonorrhoeae Attachment to and Invasion of Primary, Human, Cervical Cells. Primary cervical cell monolayers were infected with wild-type or PLD mutant gonococci as outlined above. Variable concentrations of PtC (Sigma), ethanol, 2-butanol, or Streptomyces spp. PLD (SsPLD) (Sigma) were included in association (adherence and invasion) or invasion assays, as noted. PtC, ethanol, 2-butanol, or 10 units ml^−1 SsPLD were added simultaneously with gonococci. In separate assays, infection supernatants were collected from wild-type or PLD mutant-infected cervical cell monolayers, gonococci were removed by filtration through a 0.22 μm syringe filter (to yield primed wild-type or mutant supernatants), which were then added to association and/or invasion assays, as noted. The ability of gonococci to adhere to and/or invade pex and pen cells was quantitatively determined using standard gentimicin-resistance assays, performed as described previously (Edwards et al., 2000) and in which chemical or protein additives were included or excluded from the invasion assay as described above. The total association (i.e., adherence and invasion) of gonococci with pex and pen cells was quantitated by the omission of gentimicin from the above described invasion assay. Percent invasion of N. gonorrhoeae 1291 or 1291ΔPLD in the presence or absence of experimental additives was determined as a function of the original inoculum and the number of colonies formed with subsequent plating of the cellular lysate. Inhibition of gonococcal attachment and/or invasion by exogenous PtC, ethanol, or 2-butanol was determined as a normalized function of the ability of gonococci to attach to and/or invade primary cervical cells in the absence of the competimer inhibitor. A Kruskal-Wallis non-parametric analysis of variance was used to determine the statistical significance of the association and invasion assays described above.

The subject of series [2] is gonococci. Conditions: 1.0, 0.1, or 0.01 percent alcohol, absence of cervical cells (data not shown). Here is the method:
Consequently, it was determined if exogenously added PLD substrates could compete with cervical cell constituents for NgPLD activity and in doing so interfere with the role of NgPLD in gonococcal invasion.

For series [3], the system named is primary cervical cells. Description: Association and invasion assays, primary cervical cells (cell type not specified). It is filed as cell-based, human. To be noted: for effect on gonococcal association, invasion or CR3 cell surface recruitment: negative controls: 200 nM 4-α phorbol, 3 mM hydrogen peroxide; for intracellular survival of PLD mutant gonococci: 100 μM pervanadate or 200 nM PMA. As for the experimental part:
The anti-PLD antibody was screened for specificity to PLD using assays well-known to the art.
as §1

Series [4] relates to Endocervical Cells. Put plainly: Association and invasion (gentimicin-resistance) assays, primary endocervical (pen) cells. The series is classed as cell-based, human. To be noted: 1291 + 100 nM DPG. As for the experimental part:
as §1, with “Alternatively, where noted, cervical cell monolayers were pre-incubated (30 minutes, 37° C.) with pervanadate, which was made by mixing 100 μM ortho-sodium vanadate in 3 mM hydrogen peroxide. In separate assays, infection supernatants were collected from wild-type or PLD mutant-infected cervical cell monolayers, gonococci were removed by filtration through a 0.22 μm syringe filter (i.e., wild-type or mutant primed supernatants) and were added to association and/or invasion assays, as noted.” left out, “A Kruskal-Wallis non-parametric analysis of variance was used to determine the statistical significance of the association and invasion assays described above.” left out

Series [5] has as its system PLD. Put plainly: PLD activity (Amplex Red Phospholipase D Assay Kit) in gonococci, infected cervical cell lysates, fractions and supernatants. The series is classed as biochemical, N. gonorrhoeae. As for the experimental part: (§2) 4. Determination of PLD Activity. PLD activity was accessed using the Amplex™ Red Phospholipase D Assay Kit (Molecular Probes, Eugene Oreg.). Wild-type and PLD mutant gonococci were suspended in PLD assay buffer to a final concentration of 10^7 bacteria ml^−1, and activity was determined according to the manufacturer's protocol. Assessment of PLD activity at acidic pH was determined in a two-step assay according to the manufacturer's protocol. For the first step, 10^8 gonococci were suspended in PBS with the pH adjusted to 3.0, 4.5, or 6.0. Gonococcal suspensions were diluted 10-fold in PLD assay buffer for the second step of the reaction. Cervical cell fractions were prepared as outlined below and PLD activity was assessed at neutral pH according to the manufacturer's protocol.
5. Fractionation of Primary Cervical Cells. Uninfected (control) and infected cervical cell monolayers were lysed in buffer A (50 mM tris, pH 7.5; 10 mM NaCl, 1 mM KCl; 2 mM MgCl2, 1 mM PMSF) by scraping cervical cells from tissue culture dishes placed on ice. The cell lysate was sonicated (two bursts of 20 seconds each). Cell debris and the nuclear fraction was removed by centrifugation (750×g, 10 minutes), and the supernatant from this spin was then subjected to filtration through a low-protein binding 0.22 μm syringe filter to ensure removal of gonococci. Alternatively, gonococci were removed by immunoprecipitation (as described by Wen et al., 2000) using the monoclonal antibody, 2C3, which recognizes the H.8 outer membrane protein of the pathogenic Neisseria. Sucrose was added to the resulting gonococcus-depleted supernatant (S1) to a final concentration of 300 mM. Ultracentrifugation (150,000×g, 90 minutes) was then performed to produce the plasma membrane-(pellet) and cytosol (supernatant 2, S2)-enriched fractions. The membrane-enriched fraction was resuspended in PLD assay buffer (50 mM Tris, 5 mM CaCl2, pH 8.0). S2 was concentrated by filtration through Centricon YM-30 centrifugal filter units (Millipore) after which cytosolic constituents were recovered in PLD assay buffer. Where indicated, prior to infection studies primary pex and pen cell monolayers were treated with 300 nM wortmannin (Sigma) (2 hours, 37° C.) or 1 μM cytochalasin D (Sigma) (30 minutes, 37° C.) to inhibit macropinocytosis of gonococci. Wortmannin and cytochalasin D were maintained in cervical cell cultures during the course of infection.
as §2, with “Determination of” for “4. Determination of”, “Assessment of gonococcal PLD activity” for “Assessment of PLD activity”
Fractionation of Primary Cervical Cells. Uninfected (control) and infected cervical cell monolayers were lysed in buffer A (50 mM tris, pH 7.5; 10 mM NaCl, 1 mM KCl; 2 mM MgCl2, 1 mM PMSF) by scraping cervical cells from tissue culture dishes placed on ice. The cell lysate was sonicated (two bursts of 20 seconds each). […] Sucrose was added to the resulting gonococcus-depleted supernatant (S1) to a final concentration of 300 mM. Ultracentrifugation (150,000×g, 90 minutes) was then performed to produce the plasma membrane-(pellet) and cytosol (supernatant 2, S2)-enriched fractions. The membrane-enriched fraction was resuspended in PLD assay buffer (50 mM Tris, 5 mM CaCl2, pH 8.0). […]

In series [6] the test system is CR3. Put plainly: CR3 surface expression on primary cervical cells (ELISA with H5A4). It is filed as cell-based, human. Conditions: for CR3 recruitment to the cervical cell surface: PLD mutant infected cells, 100 μM pervanadate or 200 nM PMA; for CR3 surface level expression: uninfected cervical cells. Here is the method: As described hereinbelow, primary cervical cells were seeded in 96-well microtiter plates to comparatively quantitate surface level expression of CR3. In the procedure, cells were (i) uninfected; (ii) challenged with wild-type gonococci; (iii) challenged with PLD-mutant gonococci; and/or (iv) challenged with filtered, primed (see infra) wild-type or PLD-mutant gonococcal supernatants. After removal of the infection supernatant, cell monolayers were rinsed, fixed and subsequently labeled with an antibody (anti-CD11b antibody H5A4; Hildreth and August, 1985) specific for the CR3 I-domain subunit followed by an HRP antibody-conjugate (commercially available from Kirkegaard & Perry Laboratories, Gaithersburg, Md.) using standard ELISA protocols. Absorbance of the o-phenylenediamine dihydrochloride peroxidase substrate was determined spectrophotometrically at 490 nm (FIG. 15).
7. Determination of CR3 Surface Expression on Primary Cervical Cells. Pex and pen cells were passed to 96-well microtiter plates and allowed to grow to confluence. Cervical cells were then challenged with wild-type or PLD mutant gonococci after which the infection medium was removed and cells were rinsed thrice with PBS. Cells were fixed with 2% paraformaldehyde. Prior to immuno-analysis of CR3 surface level expression, cells were again rinsed with PBS. Immunoassays were then performed according to standard ELISA protocols using the H5A4 anti-CD11b (i.e., CR3) primary and peroxidase-conjugated secondary antibodies. Absorbance of the o-phenylenediamine dihydrochloride peroxidase substrate was determined spectrophotometrically at 490 nm. Primary antibody was omitted from one well, and the secondary antibody was omitted from a second well, which served as a control for endogenous peroxidase activity. Where indicated 200 nM phorbol myristate (PMA), 200 nM 4-α phorbol, 100 μM pervanadate, 3 mM hydrogen peroxide, or gonococci-depleted supernatants collected from wild-type or PLD mutant infection studies were included in the infection studies as outlined below.
Determination of CR3 Surface Expression on Primary Cervical Cells. Pex and pen cells were passed to 96-well microtiter plates and allowed to grow to confluence. Cervical cells were then challenged with wild-type or PLD mutant gonococci after which the infection medium was removed and cells were rinsed thrice with PBS. Cells were fixed with 2% paraformaldehyde. Prior to immuno-analysis of CR3 surface level expression, cells were again rinsed with PBS. Immunoassays were then performed according to standard ELISA protocols using the H5A4 anti-CD11b (i.e., CR3) primary and peroxidase-conjugated secondary antibodies. Absorbance of the o-phenylenediamine dihydrochloride peroxidase substrate was determined spectrophotometrically at 495 nm. […]
Background: An ELISA detects its analyte on a solid surface through an enzyme-linked reagent.

Setting [7] is: 1291 WT, alcohol competimer 0.01 %.
Setting [8] is: 1291 WT, alcohol competimer 0.1 %.
Setting [9] is: 1291 WT, alcohol competimer 1.0 %.
Setting [10] is: Ectocervical Cells, 1291 + 100 nM DPG.

With `CCC(C)O` (stereo not shown) [2-Butanol, 2-butanol], the “Invasion (%)” value in series [1] (setting [7]) is given as 2.8661 (0.53) %; in series [1] (setting [8]) it was 2.7087 (0.47) %; in series [1] (setting [9]) it was 2.6869 (0.47) %; in series [1] (1291ΔPLD, alcohol competimer 0.01 %), 0.2819 (0.02) %; in series [1] (1291ΔPLD, alcohol competimer 0.1 %), 0.3172 (0.03) %; in series [1] (1291ΔPLD, alcohol competimer 1.0 %), 0.2960 (0.05) %. In series [2], the “survival of gonococci” value is reported as “no significant difference in survival”.

As for `CC1=C[C@H]2[C@@]3(O)[C@H](C)[C@@H](O)[C@]4(O)[C@H]([C@@H]3C=C(CO)C[C@@]2(O)C1=O)C4(C)C` [4-α-phorbol], the “effect on gonococcal association, invasion or CR3 cell surface recruitment” value in series [3] is on record as “had no affect”.

As to `O=C(O)C(COP(=O)(O)O)OP(=O)(O)O` (stereo not shown) [DPG, 2,3-diphosphoglycerate], in series [3], the “effect on PLD activity, association and invasion of cervical cells by gonococci” value is “inhibits gonococcal association and invasion”. In addition, the figures for the “Association, Mean” value in series [1] (setting [10]) and in series [4] were 15.31 and 6.97, respectively. The “Invasion, Mean” value is 0.36 in series [1] (setting [10]) and 0.21 in series [4].

With `CCO` [Ethanol, ethanol], the “Inhibition (%)” value in series [1] (setting [7]) is recorded as 74.9582 (0.87) %; in series [1] (setting [8]), 80.9243 (1.41) %; in series [1] (1291 WT, alcohol competimer 1.0 %, variance in parentheses), 90.7346 (0.92) %. Also, the “Invasion (%)” value in series [1] (setting [7]) was 0.6957 (0.02) %; in series [1] (setting [8]), 0.5288 (0.01) %; in series [1] (setting [9]) it was 0.2564 (0.01) %. In addition, the “survival of gonococci” value in series [2] was “no significant difference in survival”.

Take `OO` [H2O2, hydrogen peroxide]: the “PLD activity (Table 3, untitled)” value in series [5] (No cervical cells) is 0.961. Also, the “Mean PLD activity, No Cells” value in series [5] (gonococci alone and assay control (Table 7B, C)) came out at 0.885. Moreover, the “PLD activity, Assay Controls (Table 4C)” value in series [5] (positive control) is reported as 0.781. Moreover, the “PLD activity, Assay Controls, mean” value in series [5] (positive control (Table 8A)) came to 1.557. Besides, the “effect on gonococcal association, invasion or CR3 cell surface recruitment” value in series [3] is on record as “No effect was observed”.

With `CCCCCCCCCCCCCC(=O)O[C@@H]1[C@@H](C)[C@@]2(O)[C@@H](C=C(CO)C[C@]3(O)C(=O)C(C)=C[C@@H]23)[C@@H]2C(C)(C)[C@]12OC(C)=O` [PMA, phorbol myristate], the “intracellular survival of PLD mutant gonococci” value in series [3] is “partially restored intracellular survival”. In addition, in series [6], the “CR3 recruitment to the cervical cell surface” value is listed as “rescued CR3 recruitment” and the “CR3 surface level expression” value is on record as “increased CR3 surface level expression”.

Turning to pervanadate, the “intracellular survival of PLD mutant gonococci” value in series [3] was “not sufficient to allow the intracellular survival”. Moreover, in series [6], the “CR3 recruitment to the cervical cell surface” value is given as “rescues CR3 recruitment” and the “CR3 surface level expression” value is “does not stimulate CR3 surface recruitment”.

For the origin of these results see patent publication US7261901B2, “Vaccine and compositions for the prevention and treatment of neisserial infections” (University of Iowa Research Foundation, priority 2001, dated 2007).
